# “Also recorded” adds a separate entry of the source. Square brackets hold non-standard residues; d marks the D form. Peptide text beside a SMILES is read from it.
# What was measured:
# [1] = Stability (half-life) in human serum, intact peptide by UPLC-MS; assay type: in vitro ADME; details: human serum (50% in FIG. 5; 10 and 50% in PBS), 0.1 mM peptide
# Description: FIG. 5: Stability of JNK inhibitors with SEQ ID NOs: 172, 196 and 197 in 50% human serum. The JNK inhibitor with SEQ ID NO: 196 was totally degraded into amino acids residues within 6 hours (A). The JNK inhibitor with SEQ ID NO: 172 was completely degraded only after 14 days (B). The JNK inhibitor with SEQ ID NO: 197 was stable at least up to 30 days (B).
# The JNK inhibitors with the sequence of SEQ ID NOs: 196, 197, and 172 (0.1 mM final concentration) were digested in human serum (10 and 50% in PBS 1×). The experiment was performed as described by Tugyi et al. (Proc Natl Acad Sci USA, 2005, 413-418). The remaining intact peptide was quantified by UPLC-MS. Stability was assessed for SEQ ID NOs: 196, 197, and 172 identically but in two separate assays. While the JNK inhibitor with SEQ ID NO: 196 was totally degraded into amino acids residues within 6 hours, the JNK inhibitor with SEQ ID NO: 172 was completely degraded only after 14 days. The JNK inhibitor with SEQ ID NO: 197 was still stable after 30 days.
# [2] = tested on: scopolamine-induced dry eye in mice; assay: Scopolamine-induced model of dry eye (TBUT, PRTT, histopathology); assay type: in vivo, mouse; details: for histological scores of the cornea compared with cyclosporine group: Day 22
# Description: The objective of this study was to assess the effects of two different compounds, the all-D-retro-inverso JNK-inhibitor (poly-)peptide of SEQ ID NO: 197 and the JNK inhibitor (poly-)peptide of SEQ ID NO: 172, at three dose levels in a mouse model of scopolamine-induced dry eye.
# The peptides of SEQ ID NO: 197 and SEQ ID NO: 172 were tested for efficacy in this murine model of dry eye. The peptides were both tested at a low, medium and a high dose. […] The vehicle, which also served as the negative control, was 0.9% Sodium Chloride for Injection USP.
# The study consisted of a total of 9 groups of female C57BL/6 mice, comprising 8 groups of 12 mice each and an additional group of 4 mice. Bilateral short-term dry eye was induced by a combination of scopolamine hydrobromide (Sigma-Aldrich Corp., St. Louis, Mo.) injection (subcutaneous (SC), four times daily, 0.5 mg/dose, Days 0-21) and by exposing mice to the drying environment of constant air draft. […] Mice of Group 9 were maintained as un-induced, (no dry eye) untreated controls.
# During the in-life (treatment) period, clinical observations were recorded once daily; slit-lamp examination (SLE) with corneal fluorescein staining, tear break-up time test (TBUT), and phenol red thread test (PRTT) were performed three times per week. Necropsies were performed on Day 22; eyes, eye lids, conjunctivae, and lacrimal glands were collected from both eyes of each animal. Tissues from the right eyes (oculus dexter, OD) were fixed and then evaluated microscopically. Tissues from the left eyes (oculus sinister; OS) were flash-frozen in liquid nitrogen and stored frozen at −80° C. for possible subsequent analyses.
# Prior to the start of the study, the (poly-)peptides of SEQ ID NO: 172 and of SEQ ID NO: 197 were formulated in sterile saline (vehicle). Dosing solutions at each concentration were sterilized using 0.2-μm filters, aliquoted to multiple pre-labeled vials, and frozen at −20° C.
# Prior to entry into the study, each animal underwent a SLE and indirect ophthalmic examination using topically-applied fluorescein. Ocular findings were recorded using the Draize scale ocular scoring. SLE and Draize scoring were repeated three times a week during the in-life period.
# The TBUT test was conducted three times weekly by measuring the time elapsed in seconds between a complete blink after application of fluorescein to the cornea and the appearance of the first random dry spot in the tear film. […] At least ninety seconds later, corneal epithelial damage was graded using a slit-lamp with a cobalt blue filter after another drop of 0.1% fluorescein was reapplied to the cornea; the cornea then was scored per the Draize ocular scale.
# Tear production was measured three times a week in both eyes using PRTT test strips (Zone-Quick; Menicon, Nagoya, Japan). Prior to the first treatment of the day, a thread was applied to the lateral canthus of the conjunctival fornix of each eye for 30 seconds under slit-lamp biomicroscopy. Tear migration up the tread (i.e., the length of the wetted cotton thread) was measured using a millimeter scale.
# At necropsy on Day 22, both eyes from each animal, including the globes, lacrimal glands, eyelids, and conjunctivae, were excised.
# [3] = tested on: Primary Rat Whole Blood Cells; assay: Cytokine release in rat whole blood (LPS or PMA+ionomycin, 4 h); assay type: cell-based; details: 10 μM inhibitor, three activator concentrations
# Description: Given are the results for the control, 1 μM of SEQ ID NO: 172, 3 μM of SEQ ID NO: 172, and 10 μM of SEQ ID NO: 172 at different levels of LPS (ng/ml).
# FIG. 17 Dose dependent inhibition of IL-2 release in rat whole blood stimulated with PMA+ionomycin. JNK inhibitor with SEQ ID NO: 172 was added at three different concentrations, namely 1, 3 and 10 μM 1 h before stimulation with PMA+ionomycin. Three doses of activators were added (25/500 ng/mL, 50/750 ng/mL and 50/1000 ng/mL) for 4 h. IL-2 release was assessed in supernatant.
# Whole blood is collected from anesthetized rat or human healthy volunteers using a venipuncture connected to a pre-labeled vacuum tube containing sodium citrate. Tubes are gently mixed by inversion 7-8 times; and are then kept at RT until stimulation. JNK inhibitor of SEQ ID NO: 172_is prepared […] concentrated in PBS, and 30 μl/well of mix is added into 96-well plate. Whole blood is diluted by 1:2 in PBS and 120 μl of diluted blood is added in each well where either PBS alone or JNK inhibitor of SEQ ID NO: 172 has been previously added. Whole blood is incubated at 37° C.; 85 rpm (Stuart Orbital incubator S1500) for 60 min. […] Cytokine (IL-6, IL-2, IFNγ and TNFα) were then measured using standard Elisa kits (e.g. from R&D Systems: DuoSet Elisas; or from BD Biosciences: BD Opteia Set Elisa). Results are expressed as pg/ml of supernatant of the measured cytokine. […]
# primary human T-cells = assay: IL2 secretion by primary human T-cells; assay type: cell-based
# Text: The JNK inhibitors used are indicated by their SEQ ID NO: 172 and 197.
# [4] = topical ocular TID, Days 1 to 21
compound,measurement,setting,value
"CC(C)C[C@H](NC(=O)[C@H](CC(N)=O)NC(=O)[C@H](CC(C)C)NC(=O)[C@@H](NC(=O)[C@@H](C)NC(=O)[C@@H]1CCCN1C(=O)[C@H](CCCNC(=N)N)NC(=O)[C@@H](CCCCN)NC(=O)[C@@H]1CCCN1C(=O)[C@H](CCCNC(=N)N)NC(=O)[C@@H](CCCNC(=N)N)NC(=O)[C@H](CCCNC(=N)N)NC(=O)[C@H](CCCNC(=N)N)NC(=O)[C@H](CCC(N)=O)NC(=O)[C@@H](CCCNC(=N)N)NC(=O)[C@H](CCCNC(=N)N)NC(=O)[C@H](CCCCN)NC(=O)[C@H](CCCCN)NC(=O)[C@H](N)CCCNC(=N)N)[C@@H](C)O)C(=O)N[C@H](Cc1ccccc1)C(N)=O [SEQ ID NO: 172, rKKRrQRRrRPkRPaTLNLf] (H-[dR]KKR[dR]QRR[dR]RP[dK]RP[dA]TLNL[dF]-NH2; N-terminus assumed)",completely degraded only after,[1],14 days
same,histological scores of the cornea compared with cyclosporine group,[2]; 0.2% (mid dose),"the most effective, after cyclosporine"
same,histological scores of the cornea compared with cyclosporine group,[2]; 0.6% (high dose),"the most effective, after cyclosporine"
same,TBUT AUC compared with vehicle control (Kruskal-Wallis),"[2]; Day 7 to Day 21, SEQ ID NO: 172 0.05%, 0.2% and 0.6%, cyclosporine 0.05%",significant increases in the TBUT AUC
same,"PRTT in the last test, aqueous tear production","[2]; Day 21, mid and high-dose (0.2%, 0.6%)",therapeutic effects similar to cyclosporine
same,"PRTT, production of aqueous tears, low, mid and high dose (in words)",[2]; [4],significantly more aqueous tears compared to vehicle-treated animals
same,"TBUT means, low, mid and high dose (in words)",[2]; [4],above the vehicle group; also recorded: dose-dependent increase in TBUT
same,PMA-iono-induced IL-2 release,[3],did efficiently reduce PMA-iono-induced IL-2 release
same,IL2 secretion in response to CD3/CD28 stimulation,primary human T-cells,blocks IL2 secretion
same,IL2 secretion in response to PMA/Ionomycin,primary human T-cells,blocks IL2 secretion
